The record followed here is publication PMC9848300, “Discovery of novel enasidenib analogues targeting inhibition of mutant isocitrate dehydrogenase 2 as antileukaemic agents” (Journal of Enzyme Inhibition and Medicinal Chemistry, 2023).

Structures are written as SMILES. Numbering of substitutions follows the chain as printed.

The test system of one series is CCRF-CEM. In words: NCI 60 antitumor screening (single dose / five doses). The class given is cell-based. The note with it: Homo sapiens.
Series [1] deals with HL-60(TB) cells. In words: Cell cycle analysis (PI, flow cytometry). The format is cell-based, human. The note with it: 24 h. On the procedure:
Targeting cancer cell cycle has been emerged as a viable approach for cancer treatment. To recognise the role of compound 6c in GI of cancer cells, and induction of apoptosis in different phases, DNA flow cytometric analysis was performed to measure the effect of compound 6c on cell cycle progression for leukaemia, HL-60(TB) cancer cells.
Following that, two runs of wash with ice-cold phosphate-buffered saline (PBS) were performed. And then, the treated HL-60(TB) cells were centrifuged and frozen in ethanol (70%, ice-cold) then washed in PBS, resuspended with RNase ([…]), stained with PI ([…]), finally analysed by flow cytometry using a FACS Calibur (Becton Dickinson, BD; Franklin Lakes, NJ). To calculate the cell cycle distributions, CellQuest software version 5.1 (Becton Dickinson) was used.

The next series concerns SK-MEL-5. The series can be described thus: NCI 60 antitumor screening (single dose / five doses). The class given is cell-based. The note with it: Homo sapiens.
The target in the next series is T1, IDH2^R140Q (Homo sapiens, UniProt P48735, R140Q).
T1 sequence (P48735 40-452 R140Q): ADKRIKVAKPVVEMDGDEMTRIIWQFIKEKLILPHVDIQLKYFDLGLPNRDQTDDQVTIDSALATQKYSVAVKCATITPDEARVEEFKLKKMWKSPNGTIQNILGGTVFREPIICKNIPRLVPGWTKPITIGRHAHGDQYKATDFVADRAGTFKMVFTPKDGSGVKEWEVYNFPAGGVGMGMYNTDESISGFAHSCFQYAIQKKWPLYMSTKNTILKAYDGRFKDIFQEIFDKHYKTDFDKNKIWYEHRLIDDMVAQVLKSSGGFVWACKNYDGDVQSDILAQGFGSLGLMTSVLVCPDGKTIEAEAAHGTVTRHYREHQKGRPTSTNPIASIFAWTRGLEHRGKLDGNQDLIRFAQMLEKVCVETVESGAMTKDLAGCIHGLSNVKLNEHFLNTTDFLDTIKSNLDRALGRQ
In words: biochemical.

The test system of another series is active Caspase 3. In words: Western blot analysis for apoptotic markers. Particulars: HL-60(TB) cells. The class given is cell-based, human. On the procedure: (§1) Cysteine-containing aspartic acid-specific proteases, caspases provide essential links in cell controlling the apoptotic machinery[45]^,[46]. For this reason, this study was further extended to investigate the mechanism of compound 6c to provoke apoptosis in HL-60(TB) leukaemia cell line.
(§2) Compound 6c was incubated with the seeded cells following the procedure described by W. Neal Burnette[60].

The next series has as its system active Caspase 9. The series can be described thus: Western blot analysis for apoptotic markers. The class given is cell-based, human. Particulars: HL-60(TB) cells. On the procedure: as §1, §2
For a further series, the system named is SF-295. In words: NCI 60 antitumor screening (single dose / five doses). The note with it: Homo sapiens. The class given is cell-based.
Series [2] concerns HL-60(TB) cells. In words: Annexin V-FITC/PI apoptosis assay. The class given is cell-based, human. The note with it: GI50 (158 nM), 24 h. The method, then: Extrinsic as well as intrinsic apoptosis in leukaemia, HL-60(TB) cancer cells, induced by compound 6c was evaluated by Annexin V and PI staining. […] Compound 6c induced an early apoptosis (2.88%), in HL-60(TB) at 24 h compared to control (0.51%) and enhanced late apoptotic induction (15.75%) by more than 85-fold over the untreated cells (0.18%). Moreover, compound 6c induced necrosis by 7 times more than control as declared in Figures 8 and 9.
Annexin V-fluorescein isothiocyanate (Annexin V-FITC) has high affinity to phosphatidylserine (PS). This affinity enables detection of PS by Annexin V-FITC staining as previously described.

Another series concerns MOLT-4. The series can be described thus: NCI 60 antitumor screening (single dose / five doses). The class given is cell-based. The note with it: Homo sapiens.
A short description of the next series: in vitro. The note with it: human.
Another series addresses T2, wild type IDH2 (Homo sapiens, UniProt P48735).
T2 sequence (P48735 40-452): T1 sequence (P48735 40-452 R140Q) with Q101R
The series can be described thus: IDH2 enzyme inhibition assay (wild type IDH Assay Kit).

For a further series, the system named is MDA-MB-468. In words: NCI 60 antitumor screening (single dose / five doses). The format is cell-based. The note with it: Homo sapiens.

Description for in vitro: Data was measured in triplicate, and IC50 values are given as mean values ± SD.

On to `Brc1cccc(/C=N/Nc2nc(N/N=C/c3cccc(Br)c3)nc(N3CCOCC3)n2)c1` [compound 6c, 2,4-Bis[(E)-2-[(3-bromophenyl)methylidene]hydrazin-1-yl]-6-(morpholin-4-yl)-1,3,5-triazine], for which the inhibition at 10 µM was found to be 79% in the series on CCRF-CEM (CCRF-CEM (leukaemia), single dose 10 μM, read-out: Growth inhibition percentage (GI %)); 79.3% with SK-MEL-5 (SK-MEL-5 (melanoma), single dose 10 μM, read-out: Growth inhibition percentage (GI %)); 70.9% with SF-295 (SF-295 (CNS cancer), single dose 10 μM, read-out: Growth inhibition percentage (GI %)); 89.8% in the series on MOLT-4 (MOLT-4 (leukaemia), single dose 10 μM, read-out: Growth inhibition percentage (GI %)); 98.9% in the series on MDA-MB-468 (MDA-MB-468 (breast cancer), single dose 10 μM, read-out: Growth inhibition percentage (GI %)). In addition, the GI50 was 570 nM in the series on CCRF-CEM (CCRF-CEM, five doses (0.01–100 μM), read-out: GI50); 1990 nM in the series with SK-MEL-5 (SK-MEL-5, five doses (0.01–100 μM), read-out: GI50); 4940 nM in the series on SF-295 (SF-295, five doses (0.01–100 μM), read-out: GI50); 680 nM with MOLT-4 (MOLT-4, five doses (0.01–100 μM), read-out: GI50); 1910 nM with MDA-MB-468 (MDA-MB-468, five doses (0.01–100 μM), read-out: GI50). Also, in the series on HL-60(TB) cells [1] (158 nM), the “increase of apoptotic cells at the pre-G1 phase compared to DMSO” value turned out to be 14 fold. Moreover, the “Cell cycle distribution %G0–G1” value in the series on HL-60(TB) cells [1] (GI50 concentration (158 nM)) was 54.06%. In addition, the “Cell cycle distribution %G2/M” value with HL-60(TB) cells [1] (GI50 concentration (158 nM)) is recorded as 4.76%. For the same molecule, in the series with HL-60(TB) cells [1] (GI50 concentration (158 nM)), the “Cell cycle distribution %Pre-G1” value is reported as 28.02%. Moreover, the “Cell cycle distribution %S” value in the series on HL-60(TB) cells [1] (GI50 concentration (158 nM)) is listed as 41.18%. Besides, the figures for the IC50 at IDH2^R140Q, in “in vitro” and on wild type IDH2 were 102 ± 4.97 nM, 53700 ± 2940 nM and 2930 ± 110 nM, respectively. Besides, the “expression of active caspase 3 in comparison to the control” value in the series with active Caspase 3 is “about 3 fold”. For the same molecule, the “expression of active caspase 9 in comparison to the control” value in the series on active Caspase 9 was around 4 fold. The early apoptosis in the series on HL-60(TB) cells [2] worked out at 2.88%. The late apoptotic induction in the series on HL-60(TB) cells [2] is 15.75%. For the same molecule, the “late apoptotic induction over the untreated cells” value in the series with HL-60(TB) cells [2] is “more than 85 fold”. In the series with HL-60(TB) cells [2], the “necrosis induction relative to control” value stood at 7 times.
